The target of this assay is T1, IRAK4 (Homo sapiens, UniProt Q9NWZ3).
T1 sequence (Q9NWZ3 1-460): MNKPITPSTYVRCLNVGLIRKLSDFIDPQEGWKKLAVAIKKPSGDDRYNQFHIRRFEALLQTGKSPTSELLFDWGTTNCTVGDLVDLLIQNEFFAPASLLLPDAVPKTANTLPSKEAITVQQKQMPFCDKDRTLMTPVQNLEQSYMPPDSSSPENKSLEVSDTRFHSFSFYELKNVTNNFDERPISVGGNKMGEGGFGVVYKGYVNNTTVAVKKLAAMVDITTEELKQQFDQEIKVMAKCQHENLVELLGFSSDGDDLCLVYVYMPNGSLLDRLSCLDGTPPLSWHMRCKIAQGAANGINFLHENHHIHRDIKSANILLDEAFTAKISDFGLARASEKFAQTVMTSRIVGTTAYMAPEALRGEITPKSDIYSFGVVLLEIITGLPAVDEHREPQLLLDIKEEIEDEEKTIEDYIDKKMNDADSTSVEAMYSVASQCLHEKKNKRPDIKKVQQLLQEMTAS
Nature of the assay: OCI-LY-10 degradation assay (western blot, % IRAK4 degraded after 4 hours). Particulars: OCI-LY10 cells; for OCI-LY10 % IRAK4 Degradation (0.01 uM) / OCI-LY10 % IRAK4 Degradation (0.1 uM) / OCI-LY10 % IRAK4 Degradation (1 uM): 4 hours; for OCI-LY10 % IRAK4 Degradation (0.01 uM): 0.01 uM compound; for OCI-LY10 % IRAK4 Degradation (0.1 uM): 0.1 uM compound; for OCI-LY10 % IRAK4 Degradation (1 uM): 1 uM compound; for OCI-LY10 % IRAK4 Degradation: IRAK4 degraded after 4 hours, western blot. Set-up: endogenous in cells; host or cells: OCI-LY10. The class given is cell-based. An outline of the steps:
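OCI-LY10 cells (RPMI-1640, 20% FBS, 55 μM 2-ME) treated with compound at 0.003-10 μM final for 4 h at 37° C, then lysed in RIPA buffer. IRAK4 level read by fluorescent western blot (20-25 μg protein) and binned as % degraded: A >50%, B >20-50%, C <20%.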
(In western blotting, separated proteins are transferred to a membrane and probed.)

Regarding `NC(=O)c1nn(-c2ccc(C(=O)NCCOCCOCCOCCCc3cccc4c3CN(C3CCC(=O)NC3=O)C4=O)cc2)cc1NC(=O)c1coc(-c2ccnc(NCC3CC3)c2)n1` (stereo not shown) [I-238], the “OCI-LY10 % IRAK4 Degradation (0.01 uM)” value is “C (<20% degradation)”, the “OCI-LY10 % IRAK4 Degradation (0.1 uM)” value is recorded as “B (>20-50% degradation)” and the “OCI-LY10 % IRAK4 Degradation (1 uM)” value is listed as “A (>50% degradation)”.
For `NC(=O)c1nn(-c2ccc(C(=O)NCCOCCOCCCc3cccc4c3C(=O)N(C3CCC(=O)NC3=O)C4=O)cc2)cc1NC(=O)c1coc(-c2ccnc(NCC(F)(F)F)c2)n1` (stereo not shown) [I-147], the “OCI-LY10 % IRAK4 Degradation” value was “A (>50% degradation)”.
Regarding `NC(=O)c1nn(-c2ccc(CNCCOCCCc3cccc4c3CN(C3CCC(=O)NC3=O)C4=O)cc2)cc1NC(=O)c1coc(-c2ccnc(NCC(F)(F)F)c2)n1` (stereo not shown) [I-318], the “OCI-LY10 % IRAK4 Degradation (0.01 uM)” value is “C (<20% degradation)”, the “OCI-LY10 % IRAK4 Degradation (0.1 uM)” value is given as “A (>50% degradation)” and the “OCI-LY10 % IRAK4 Degradation (1 uM)” value is recorded as “B (>20-50% degradation)”.
In the case of `CN(CCOCCCc1ccc2c(c1)C(=O)N(C1CCC(=O)NC1=O)C2=O)Cc1ccc(-n2cc(NC(=O)c3coc(-c4ccncc4)n3)c(C(F)F)n2)cc1` (stereo not shown) [I-377], the “OCI-LY10 % IRAK4 Degradation (0.01 uM)” value is “C (<20% degradation)”, the “OCI-LY10 % IRAK4 Degradation (0.1 uM)” value is “C (<20% degradation)” and the “OCI-LY10 % IRAK4 Degradation (1 uM)” value was “B (>20-50% degradation)”.
On to `N#Cc1cnc2c(cnn2-c2cc(NC3CC3)c(C(=O)NCC(F)COc3cccc4c3C(=O)N(C3CCC(=O)NC3=O)C4=O)cn2)c1` (stereo not shown) [I-173, 6-(5-Cyanopyrazolo[3,4-b]pyridin-1-yl)-4-(cyclopropylamino)-N-[3-[2-(2,6-dioxo-3-piperidyl)-1,3-dioxo-isoindolin-4-yl]oxy-2-fluoro-propyl]pyridine-3-carboxamide], for which the “OCI-LY10 % IRAK4 Degradation” value is listed as “C (<20% degradation)”.
On the same count and under the same terms, the entry for `N#Cc1cnc2c(cnn2-c2cc(NC3CC3)c(C(=O)N[C@H]3CC[C@H](C(=O)NCCOCCOCCOCCNC(=O)COc4cccc5c4C(=O)N(C4CCC(=O)NC4=O)C5=O)CC3)cn2)c1` (stereo partly shown) [I-17] is “C (<20% degradation)”; for `CC(CNc1cccc2c1C(=O)N(C1CCC(=O)NC1=O)C2=O)OCCOCCOCC(F)CNC(=O)c1cnc(Nc2ccc3cnccc3n2)cc1NC1CC1` (stereo not shown) [I-93, 4-(Cyclopropylamino)-N-[3-[2-[2-[2-[[2-(2,6-dioxo-3-piperidyl)-1,3-dioxo-isoindolin-4-yl]amino]-1-methyl-ethoxy]ethoxy]ethoxy]-2-fluoro-propyl]-6-(1,6-naphthyridin-2-ylamino)pyridine-3-carboxamide] it is “C (<20% degradation)”.
Regarding `O=C1CCC(N2C(=O)c3cccc(NCCOCCN4CCO[C@H](CNCc5ccc(-n6cc(NC(=O)c7coc(-c8ccnc(NCC9CC9)c8)n7)c(C(F)F)n6)cc5)C4)c3C2=O)C(=O)N1` (stereo partly shown) [I-330], the “OCI-LY10 % IRAK4 Degradation (0.01 uM)” value is on record as “C (<20% degradation)”, the “OCI-LY10 % IRAK4 Degradation (0.1 uM)” value was “A (>50% degradation)” and the “OCI-LY10 % IRAK4 Degradation (1 uM)” value was “A (>50% degradation)”.
On to `NC(=O)c1nn(-c2ccc(CNCCCCCOCCCc3cccc4c3C(=O)N(C3CCC(=O)NC3=O)C4=O)cc2)cc1NC(=O)c1coc(-c2ccnc(NCC3CC3)c2)n1` (stereo not shown) [I-311], for which the “OCI-LY10 % IRAK4 Degradation (0.01 uM)” value is on record as “C (<20% degradation)”, the “OCI-LY10 % IRAK4 Degradation (0.1 uM)” value is “A (>50% degradation)” and the “OCI-LY10 % IRAK4 Degradation (1 uM)” value was “A (>50% degradation)”.
For `N#Cc1cnc2c(cnn2-c2cc(NC3CC3)c(C(=O)N[C@H]3C[C@H](C(=O)NCCOCCOCCNc4cccc5c4C(=O)N(C4CCC(=O)NC4=O)C5=O)C3)cn2)c1` (stereo partly drawn) [I-27, 6-(5-cyano-1H-pyrazolo[3,4-b]pyridin-1-yl)-4-(cyclopropylamino)-N-((1R,3R)-3-((2-(2-(2-((2-(2,6-dioxopiperidin-3-yl)-1,3-dioxoisoindolin-4-yl)amino)ethoxy)ethoxy)ethyl)carbamoyl)cyclobutyl)nicotinamide], the “OCI-LY10 % IRAK4 Degradation” value is reported as “C (<20% degradation)”.
Same read-out and setting: the result for `CC(C)(OCCOCCOCCNc1cccc2c1C(=O)N(C1CCC(=O)NC1=O)C2=O)C(F)CNC(=O)c1cnc(Nc2ccc3cnccc3n2)cc1NC1CC1` (stereo not shown) [I-56] reads “C (<20% degradation)”.
On the same count and under the same terms, the entry for `N#Cc1cnc2c(cnn2-c2cc(NC3CC3)c(C(=O)NCC(F)COCCOCCNc3cccc4c3C(=O)N(C3CCC(=O)NC3=O)C4=O)cn2)c1` (stereo not shown) [I-76] is “C (<20% degradation)”.
Regarding `O=C1CCC(N2C(=O)c3ccc(CCCNCc4ccc(-n5cc(NC(=O)c6coc(-c7ccnc(NCC(F)(F)F)c7)n6)c(C(F)F)n5)cc4)cc3C2=O)C(=O)N1` (stereo not shown) [I-375], the “OCI-LY10 % IRAK4 Degradation (0.01 uM)” value is listed as “B (>20-50% degradation)”, the “OCI-LY10 % IRAK4 Degradation (0.1 uM)” value is given as “B (>20-50% degradation)” and the “OCI-LY10 % IRAK4 Degradation (1 uM)” value is recorded as “B (>20-50% degradation)”.
Regarding `NC(=O)c1nn(-c2ccc(C(=O)NCCOCCOCCNc3cccc4c3C(=O)N(C3CCC(=O)NC3=O)C4=O)cc2)cc1NC(=O)c1coc(-c2ccnc(NCC3CC3)c2)n1` (stereo not shown) [I-138], the “OCI-LY10 % IRAK4 Degradation” value was “A (>50% degradation)”.
On the same count and under the same terms, the result for `NC(=O)[C@@H](O)C[C@H]1CCc2sc3ncnc(O[C@H]4CC[C@H](N5CCN(C(=O)COCCNc6cccc7c6C(=O)N(C6CCC(=O)NC6=O)C7=O)CC5)CC4)c3c21` (stereo partly shown) [I-153] reads “C (<20% degradation)”.
`CN(CCOCCCc1ccc2c(c1)C(=O)N(C1CCC(=O)NC1=O)C2=O)Cc1ccc(-n2cc(NC(=O)c3coc(-c4ccnc(NCC5CC5)c4)n3)c(C(F)F)n2)cc1` (stereo not shown) [I-376]: the “OCI-LY10 % IRAK4 Degradation (0.01 uM)” value is listed as “B (>20-50% degradation)”, the “OCI-LY10 % IRAK4 Degradation (0.1 uM)” value is “A (>50% degradation)” and the “OCI-LY10 % IRAK4 Degradation (1 uM)” value is reported as “A (>50% degradation)”.
For `O=C1CCC(N2C(=O)c3cccc(NCCOCCOCCOCCOCCn4cc(NC(=O)c5coc(-c6ccnc(NCC7CC7)c6)n5)c(C(F)F)n4)c3C2=O)C(=O)N1` (stereo not shown) [I-254], the “OCI-LY10 % IRAK4 Degradation (0.01 uM)” value is reported as “C (<20% degradation)”, the “OCI-LY10 % IRAK4 Degradation (0.1 uM)” value was “C (<20% degradation)” and the “OCI-LY10 % IRAK4 Degradation (1 uM)” value was “B (>20-50% degradation)”.
As for `O=C1CCC(N2C(=O)c3cccc(NCCOCCOCCOCC(F)CNC(=O)c4cnc(Nc5ccc6ncsc6c5)cc4NC4CC4)c3C2=O)C(=O)N1` (stereo not shown) [I-54], the “OCI-LY10 % IRAK4 Degradation” value is recorded as “C (<20% degradation)”.
Same read-out and setting: the entry for `CN(CCOCCOCCOCCOCCNc1cccc2c1C(=O)N(C1CCC(=O)NC1=O)C2=O)C(=O)[C@H]1C[C@H](NC(=O)c2cnc(-n3ncc4cc(C#N)cnc43)cc2NC2CC2)C1` (stereo partly shown) [I-39] is “C (<20% degradation)”; for `CC(C)(OCCOCCOCCOCCOCCNc1cccc2c1C(=O)N(C1CCC(=O)NC1=O)C2=O)C(F)CNC(=O)c1cnc(Nc2ncc(C#N)cc2F)cc1NC1CC1` (stereo not shown) [I-69] it is “C (<20% degradation)”.
In the case of `O=C1CCC(N2C(=O)c3cccc(CCCNCCCCCNC(=O)c4ccc(-n5cc(NC(=O)c6coc(-c7ccnc(NCC8CC8)c7)n6)c(C(F)(F)F)n5)cc4)c3C2=O)C(=O)N1` (stereo not shown) [I-221], the “OCI-LY10 % IRAK4 Degradation (0.01 uM)” value is on record as “B (>20-50% degradation)”, the “OCI-LY10 % IRAK4 Degradation (0.1 uM)” value is “B (>20-50% degradation)” and the “OCI-LY10 % IRAK4 Degradation (1 uM)” value is on record as “A (>50% degradation)”.
As to `CC(OCCOCCNc1cccc2c1C(=O)N(C1CCC(=O)NC1=O)C2=O)C(F)CNC(=O)c1cnc(-n2ncc3cc(C#N)cnc32)cc1NC1CC1` (stereo not shown) [I-85], the “OCI-LY10 % IRAK4 Degradation” value is reported as “C (<20% degradation)”.
As for `O=C1CCC(N2C(=O)c3cccc(N4CCN(CCOCCOCCNCc5ccc(-n6cc(NC(=O)c7coc(-c8ccnc(NCC9CC9)c8)n7)c(C(F)F)n6)cc5)CC4)c3C2=O)C(=O)N1` (stereo not shown) [I-336], the “OCI-LY10 % IRAK4 Degradation (0.01 uM)” value is recorded as “C (<20% degradation)”, the “OCI-LY10 % IRAK4 Degradation (0.1 uM)” value is on record as “C (<20% degradation)” and the “OCI-LY10 % IRAK4 Degradation (1 uM)” value is reported as “B (>20-50% degradation)”.
Consider `O=C1CCC(N2C(=O)c3cccc(NCCOCCOCCNC(=O)[C@H]4C[C@H](NC(=O)c5cnc(Nc6ccc7cnccc7n6)cc5NC5CC5)C4)c3C2=O)C(=O)N1` (stereo partly shown) [I-26, 6-((1,6-naphthyridin-2-yl)amino)-4-(cyclopropylamino)-N-((1r,3r)-3-((2-(2-(2-((2-(2,6-dioxopiperidin-3-yl)-1,3-dioxoisoindolin-4-yl)amino)ethoxy)ethoxy)ethyl)carbamoyl)cyclobutyl)nicotinamide], for which the “OCI-LY10 % IRAK4 Degradation” value is given as “C (<20% degradation)”.
The same measure, in the same setting: the entry for `N[C@@H]1CCCC[C@@H]1Nc1ccn2nc(-c3cn(-c4ccc(C(=O)NCCOCCOCCNc5cccc6c5C(=O)N(C5CCC(=O)NC5=O)C6=O)cc4)nc3C(F)F)cc2n1` (stereo partly shown) [I-142] is “B (>20-50% degradation)”.
For `O=C1CCC(N2C(=O)c3cccc(NCCOCCN4CCO[C@@H](CNC(=O)c5ccc(-n6cc(NC(=O)c7coc(-c8ccnc(NCC(F)(F)F)c8)n7)c(C(F)F)n6)cc5)C4)c3C2=O)C(=O)N1` (stereo partly shown) [I-282], the “OCI-LY10 % IRAK4 Degradation (0.01 uM)” value was “C (<20% degradation)”, the “OCI-LY10 % IRAK4 Degradation (0.1 uM)” value is reported as “C (<20% degradation)” and the “OCI-LY10 % IRAK4 Degradation (1 uM)” value is given as “C (<20% degradation)”.
`N#Cc1cnc2c(cnn2-c2cc(NC3CC3)c(C(=O)N[C@H]3CC[C@H](COCCOCCOCCOCCOCCNc4cccc5c4C(=O)N(C4CCC(=O)NC4=O)C5=O)CC3)cn2)c1` (stereo partly shown) [I-33]: the “OCI-LY10 % IRAK4 Degradation” value is reported as “C (<20% degradation)”.

(Values after patent publication US10874743B2, “IRAK degraders and uses thereof” (Kymera Therapeutics, Inc., priority 2017, dated 2020).)
